{"source": "paper PMC7253177", "about": "“Gain of channel function and modified gating properties in TRPM3 mutants causing intellectual disability and epilepsy” (eLife, 2020)", "key": {"TRPM3 V990M mutant": {"target": "T1, TRPM3 V990M mutant (Homo sapiens, UniProt Q9HCF6, V1015M)", "T1 construct": "expressed in transfected cells; host or cells: HEK293T", "T1 sequence (Q9HCF6 1-1325 isoform Q9HCF6-10 V990M)": "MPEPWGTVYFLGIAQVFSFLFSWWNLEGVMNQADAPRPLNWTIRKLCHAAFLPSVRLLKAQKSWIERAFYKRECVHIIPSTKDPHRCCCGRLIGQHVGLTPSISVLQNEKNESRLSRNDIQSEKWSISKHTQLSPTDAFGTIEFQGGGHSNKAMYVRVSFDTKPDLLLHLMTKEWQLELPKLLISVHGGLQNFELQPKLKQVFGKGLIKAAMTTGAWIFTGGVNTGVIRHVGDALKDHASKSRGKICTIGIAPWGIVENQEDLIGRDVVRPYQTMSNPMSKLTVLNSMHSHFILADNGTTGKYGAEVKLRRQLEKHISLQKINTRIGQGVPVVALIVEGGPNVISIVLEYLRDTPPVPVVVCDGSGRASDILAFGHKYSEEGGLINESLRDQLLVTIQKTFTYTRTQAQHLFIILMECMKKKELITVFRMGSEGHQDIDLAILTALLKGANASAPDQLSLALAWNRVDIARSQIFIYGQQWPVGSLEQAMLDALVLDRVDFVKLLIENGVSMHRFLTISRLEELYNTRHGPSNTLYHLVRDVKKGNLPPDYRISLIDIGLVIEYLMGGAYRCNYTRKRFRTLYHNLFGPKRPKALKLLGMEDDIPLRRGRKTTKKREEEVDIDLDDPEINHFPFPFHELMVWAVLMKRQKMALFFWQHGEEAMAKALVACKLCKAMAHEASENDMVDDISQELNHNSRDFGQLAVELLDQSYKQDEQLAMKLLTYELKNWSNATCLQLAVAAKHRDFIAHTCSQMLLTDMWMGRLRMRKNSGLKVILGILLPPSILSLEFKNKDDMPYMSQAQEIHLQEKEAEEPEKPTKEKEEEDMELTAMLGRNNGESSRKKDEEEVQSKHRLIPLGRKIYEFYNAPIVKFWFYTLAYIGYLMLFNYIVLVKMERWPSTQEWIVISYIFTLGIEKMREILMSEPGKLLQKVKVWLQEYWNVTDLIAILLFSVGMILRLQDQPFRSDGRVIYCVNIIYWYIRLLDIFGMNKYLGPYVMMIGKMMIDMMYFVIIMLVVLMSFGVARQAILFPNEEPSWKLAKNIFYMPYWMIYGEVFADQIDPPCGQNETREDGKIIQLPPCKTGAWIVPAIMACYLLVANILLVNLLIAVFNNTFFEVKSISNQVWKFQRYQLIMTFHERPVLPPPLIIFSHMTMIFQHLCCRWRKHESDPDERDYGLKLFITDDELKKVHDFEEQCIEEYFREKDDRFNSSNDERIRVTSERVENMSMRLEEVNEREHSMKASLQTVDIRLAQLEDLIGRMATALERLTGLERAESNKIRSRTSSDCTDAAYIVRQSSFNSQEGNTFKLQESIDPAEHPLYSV", "experiment": "Whole-cell patch clamp, HEK293T cells expressing V990M hTRPM3", "type": "cell-based", "conditions": "La3+ 10 µM, PS 40 µM, ±150 mV", "experimental": "(§1) HEK293T cells ([Graham et al., 1977]) were cultured as described previously ([Vriens et al., 2007]) and used up in passage number 14. HEK293T cells were tested for the lack of mycoplasma and transiently transfected with 2 µg of DNA using TransIT transfection reagent (Mirus) 36–48 hr before the measurements. In case of co-cultures a ratio of 1:1 between hTRPM3-YFP WT and mutants-YFP DNA was used.\nAll mutants were obtained by the standard PCR overlap extension method using hTRPM3 directly linked to YFP from pCAGGS/IRES-GFP vector ([Vriens et al., 2007]). Accuracy of all mutant sequences was verified by sequencing of the entire DNA constructs.\n(§2) Standard whole-cell patch-clamp recordings were performed with an EPC-10 amplifier and the PatchMasterPro Software (HEKA Elektronik, Lambrecht, Germany). Current measurements were performed at a sampling rate of 20 kHz and currents were digitally filtered at 2.9 kHz. In all measurements, 70% of the series resistance was compensated. The standard internal solution contained (in mM): 100 CsAsp, 45 CsCl, 10 EGTA, 10 HEPES, 1 MgCl2 (pH 7.2 with CsOH) or 140 potassium gluconate, 5 EGTA, 1 MgCl2, 10 HEPES and 2 NaATP (pH 7.3 with CsOH) for the measurements of Gβγ mediated inhibition and the standard extracellular solution contained (in mM): 150 NaCl, 1 MgCl2, 10 HEPES (pH 7.4 with NaOH). The standard patch pipette resistance was between 2 MΩ and 4 MΩ when filled with pipette solution. In experiments allowing Ca^2+-dependent desensitization of TRPM3, Mg^2+ was replaced by Ca^2+ in the extracellular solution, and Cs^+ was replaced by Na^+ in the pipette solution. […] The chemical ligands were dissolved in bath solution from a stock diluted in DMSO."}, "WT human TRPM3": {"target": "T2, WT human TRPM3 (Homo sapiens, UniProt Q9HCF6)", "T2 construct": "expressed in transfected cells; host or cells: HEK293T", "T2 sequence (Q9HCF6 1-1325 isoform Q9HCF6-10)": "T1 sequence (Q9HCF6 1-1325 isoform Q9HCF6-10 V990M) with M990V", "experiment": "Whole-cell patch clamp, HEK293T cells expressing WT hTRPM3", "type": "cell-based", "conditions": "cells not co-transfected with the µ-opioid receptor; DAMGO 1 µM, PS 40 µM", "experimental": "as §1, §2"}, "[1]": {"test_system": "V990M hTRPM3 co-transfected with µ-opioid receptors", "experiment": "Whole-cell patch clamp, Gβγ-mediated inhibition of PS-activated currents, cells co-transfected with µ-opioid receptor and V990M TRPM3", "type": "cell-based, human", "experimental": "(§3) TRPM3 activity is inhibited upon activation of G protein-coupled receptors, via a mechanism that involves direct binding of the Gβγ of trimeric G-proteins to the channel ([Badheka et al., 2017]; [Dembla et al., 2017]; [Quallo et al., 2017]).\nas §1\n(§4) Standard whole-cell patch-clamp recordings were performed with an EPC-10 amplifier and the PatchMasterPro Software (HEKA Elektronik, Lambrecht, Germany). Current measurements were performed at a sampling rate of 20 kHz and currents were digitally filtered at 2.9 kHz. In all measurements, 70% of the series resistance was compensated. The standard internal solution contained (in mM): 100 CsAsp, 45 CsCl, 10 EGTA, 10 HEPES, 1 MgCl2 (pH 7.2 with CsOH) or 140 potassium gluconate, 5 EGTA, 1 MgCl2, 10 HEPES and 2 NaATP (pH 7.3 with CsOH) for the measurements of Gβγ mediated inhibition and the standard extracellular solution contained (in mM): 150 NaCl, 1 MgCl2, 10 HEPES (pH 7.4 with NaOH). […]"}, "[2]": {"test_system": "WT hTRPM3 co-transfected with µ-opioid receptors", "experiment": "Whole-cell patch clamp, Gβγ-mediated inhibition of PS-activated currents, cells co-transfected with µ-opioid receptor and WT TRPM3", "type": "cell-based, human", "experimental": "as §3, §1, §4"}, "[3]": {"test_system": "P1090Q hTRPM3 co-transfected with µ-opioid receptors", "experiment": "Whole-cell patch clamp, Gβγ-mediated inhibition of PS-activated currents, cells co-transfected with µ-opioid receptor and P1090Q TRPM3", "type": "cell-based, human", "conditions": "1 µM DAMGO, PS 40 µM", "experimental": "as §3, §1, §4"}, "[4]": {"conditions": "n = 5, read-out: IC50, DAMGO concentration for half-maximal inhibition of PS-activated currents"}}, "note": "Numbering of substitutions follows the chain as printed.", "data": [{"molecule": "[La+3]", "note": "[La^3+, Lanthanum]", "values": [{"measurement": "Block of the inward component of the PS-activated current", "setting": "TRPM3 V990M mutant", "result": "resistant to block"}]}, {"molecule": "[D-Ala^2, N-Me-Phe^4, Gly^5-ol]-enkephalin acetate salt [DAMGO]", "values": [{"measurement": "Effect on TRPM3 currents", "setting": "WT human TRPM3", "result": "without effect"}, {"measurement": "Inhibition of PS-activated inward and outward currents", "setting": "[1]; 1 µM DAMGO, PS 40 µM", "result": "only partly inhibited"}, {"measurement": "IC50", "setting": "[1]; [4]", "result": "0.04 ± 0.01", "unit": "µM"}, {"measurement": "Inhibition of PS-activated inward and outward currents", "setting": "[2]; 1 µM DAMGO, PS 40 µM", "result": "complete and rapidly reversible inhibition"}, {"measurement": "IC50", "setting": "[2]; [4]", "result": "0.004 ± 0.0006", "unit": "µM"}, {"measurement": "Inhibition of PS-activated inward and outward currents", "setting": "[3]", "result": "complete and rapidly reversible inhibition"}]}]}
